Experimental data from paper PMC12081684, “A three-dimensional high throughput assay identifies novel antibacterial molecules with activity against intracellular Shigella” (npj Antimicrobials and Resistance, 2025).
“And” between values parts separate entries of the source, which are not always exact repeats. Equal entries are not always repeated. Where two headings read alike, the source gives them in different places.

Experiments:
[1] = tested on: intracellular S. flexneri SF_nanoluc in Caco-2 cells on Cytodex 3 beads; assay: microbe, parasite or virus in culture
Experimental: S. flexneri SF_nanoluc was grown overnight on a 50mgL^-1 kanamycin LB plate at 37 °C. Bacteria were scraped from the plate surface and sub-cultured in warm supplemented EMEM medium for 2 h (at 37 °C and 200 rpm) and diluted to get OD around 0.3 at 625 nm. Induction was performed in 500 ml or 1000 ml siliconized spinner flasks under closed culture conditions. 200 mg autoclaved Cytodex 3 beads (GE Healthcare), rehydrated with cation-free PBS (Sigma), were washed with supplemented EMEM medium and inoculated with 1.7 million Caco-2 cells/ml in half of the desired culture volume of the medium. The spinner vessel was kept static for 4 h in a humidified atmosphere of 5% CO2 at 37 °C, allowing Caco-2 cells to bind to beads. The remaining medium was added into the vessel and stirred at 32.5 rpm. The medium was changed every 72 h, and the induction was used on day 17 to ensure Caco-2 cells were fully differentiated.
Cell concentration induction was measured by NucleoCounter® NC-100™ (ChemoMetec Version 2.4). Cellular invasion was initiated by adding the bacterial stock into cell induction with optimal MOI, and the vessel was stationary for an hour before stirring at 22.5 rpm for 5 h in a humid atmosphere of 5% CO2 at 37 °C. After incubation, culture media was discarded by centrifugation; and a gentamicin protection assay was performed, in which cell beads were washed twice with a warm medium and EMEM containing gentamicin (100ug ml^-1) was added to the chamber of the system. The cell culture was incubated for 1 h with stirring and then washed three times with a warm medium before 25 μl of the invasive mixture was dispensed into each well. Plates were incubated for two days in a humid atmosphere of 5% CO2 at 37 °C before proceeding to develop the luminescent signal by adding 10 μl mixture of nanoluciferase substrate (Nano-Glo® Luciferase Assay System, N1130, Promega) into each well. After standing at room temperature for 30 min, luminescent signals were quantified by the Envision Reader (PerkinElmer) in focus luminescent mode. For the bacterial tracking, we used the green fluorescent protein in S. flexneri ATCC 12022GFP to monitor the invasion.
The HTS assay was performed in 384-well black clear-bottom plates (Greiner). Screening compounds were prepared with an appropriate DMSO concentration (0.5% in cell-based assay). Every assay plate contained 16 wells of DMSO as negative controls and 16 wells of moxifloxacin at a final concentration of 20 μM as positive controls. These controls were used to monitor assay quality through determination of Z’ factor as well as normalizing the data on a per-plate basis.
To assess the quality of the dose-response assay, 11 commercially available antimicrobials were used to evaluate the reliability of the HTS assay. The percentage of coefficient of variation (CV%) was calculated by accessing the IC50 (μM) deviation of selected positive controls. Intra-assay reproducibility was determined by comparing the IC50 that were generated in the same run of the two replicates. Inter-assay reproducibility was assessed by comparing the IC50 generated by two replicates of each day over two days. Intra-assay %CV should be <10%, while inter-assay %CV should be <15%. To validate the HTS assay configuration, a set of 10 thousand compounds was assayed in 384-well plates at a final concentration of 10 μM. Assay were run in duplicate and confirmed if needed, a validation data was assessed to analyse the pros and cons of the whole procedure.
Following screening, all non-novel structures were removed, and the remaining compounds were subjected to a dose response (DR) assay, which was set as 3-fold serial dilution started at 100uM each compound.
The raw data of the plate reader was imported and analysed in ActivityBase and Spotfire version 10.3.1.18 (TIBCO).

HepG2 cells = assay: In vitro cytotoxicity on HepG2 cells; format: cell-based; conditions: for IC50: Homo sapiens
From the text: Upon chemical review, the 15 hit compounds were reorganized based on structure similarity into 13 clusters. Two chemicals were considered as a series, and the remaining 11 clusters were singletons (Fig. 3). […] Four of the 15 structures carried an NO2 moiety, including two hits of Series 1, one hit of Series 2, and Singleton 7. Although the antibacterial activity of nitro-containing molecules is known to be broad, nitro groups have been extensively associated with mutagenicity and genotoxicity.

[2] = Experimental Chromlog / ChromLogD pH7.4 and PFI; format: physicochemical; conditions: for Chromlog pH7.4 (Expt): pH7.4, experimental
CAD solubility = format: physicochemical; conditions: Table 1
[3] = tested on: intracellular S. flexneri in Caco-2 cell monolayers; assay: Monolayer (plate-based) Caco-2 intracellular Shigella assay; format: cell-based, Shigella flexneri
From the text: The IC50 comparison between plate-based (monolayers) and bead-based assay was applied for control (Moxifloxacin) to validate and compare between two methods. The average IC50s from monolayer assays were lower than bead-based assays, but there was no significant difference (p value > 0.05, using Mann-Whitney test) between two methods (Supplementary Table 6).

[4] = HepG2, Supplementary table 8, read-out: HepG2 pIC50 (converted)
[5] = Shigella flexneri, Caco-2, read-out: Caco2 IC50 (μM), Table 1, 3-D Caco-2 beads, intracellular S. flexneri
[6] = Shigella flexneri, Caco-2, read-out: Caco2 pIC50, Table 1 (converted), 3-D Caco-2 beads, intracellular S. flexneri
[7] = HepG2, Table 1, read-out: HepG2 pIC50 (converted)
[8] = HepG2, read-out: HepG2 pIC50, Table 1 (converted)
[9] = Shigella flexneri, Caco-2, read-out: IC50 T1, 1st Batch, replicate T1
[10] = Shigella flexneri, Caco-2, read-out: IC50 T2, 1st Batch, replicate T2
[11] = Shigella flexneri, Caco-2, read-out: IC50 T3, 2nd Batch, replicate T3
[12] = Shigella flexneri, Caco-2, read-out: IC50 T4, 2nd Batch, replicate T4

SMILES | Selectivity (log) Caco pIC50 vs Cytotox ([1]; Caco-2) [log] | Selectivity (log) Caco pIC50 vs cytox ([1]; Caco-2) [log] | IC50 [1, 5] [µM] | IC50 [1, 6] [µM] | Chromlog pH7.4 (Expt) [2] | CAD sol (CAD solubility) [µg/mL] | IC50 [1, 9] [µM] | IC50 [1, 10] [µM] | IC50 [1, 11] [µM] | IC50 [1, 12] [µM] | other results
NC(=O)c1ccccc1Oc1ccc(Cl)cc1[N+](=O)[O-] [Compound 11] | 0.61 |  |  |  |  |  |  |  |  |  | IC50 ([1]; Shigella flexneri, Caco-2, read-out: Caco2 pIC50, Supplementary table 8 (converted)): 5.75 µM; HepG2 cytotoxicity (in words) (HepG2 cells): exhibit HepG2 cytotoxicity; IC50 (HepG2 cells; [4]): 23400 nM
N#Cc1cnn2c1[nH]c(=O)c1sc(-c3ccccc3)cc12 [Compound 9] | 0.58 | 0.58 | 19.9 | 20 | 2.5 | 17 |  |  |  |  | IC50 ([1]; Shigella flexneri, Caco-2, read-out: Caco2 pIC50, printed in Fig. 3 (converted)): 2 µM; IC50 (HepG2 cells; [7]): 75900 nM
CC(C)c1noc2ncc(C(=O)c3ccccc3O)cc12 [Compound 12] | 1.80 | 1.80 | 1.59 | 1.58 | 6.05 | 44 |  |  |  |  | IC50 (HepG2 cells; [4]): > 100000 nM; IC50 (HepG2 cells; [8]): > 10000 nM; PFI (Expt) ([2]; experimental): 9.05
COc1c(N2C[C@@H]3CCCN[C@@H]3C2)c(F)cc2c(=O)c(C(=O)O)cn(C3CC3)c12 [Moxifloxacin, reference compound] |  |  |  |  |  |  | 0.0252 | 0.0221 | 0.0235 | 0.0235 | IC50 ([1]; Shigella flexneri, Caco-2, read-out: IC50 (µM) Beads, Average, Average of three, Supplementary table 6): 0.0305 µM; IC50 ([1]; Shigella flexneri, Caco-2, read-out: IC50 (µM) Beads, single runs, Supplementary table 6): 0.0361 µM; IC50 ([1]; read-out: IC50 (µM) Beads, single runs, Supplementary table 6): 0.0327 µM and 0.0226 µM; IC50 ([3]; Shigella flexneri, Caco-2, Average of three, read-out: IC50 (µM) Monolayers, Average): 0.0232 µM; IC50 ([3]; Shigella flexneri, Caco-2, single runs, read-out: IC50 (µM) Monolayers): 0.0236 µM; IC50 ([3]; single runs, read-out: IC50 (µM) Monolayers): 0.0234 µM and 0.0228 µM
COc1ccc(-c2ccn(CC[C@](C)(C(=O)NO)S(C)(=O)=O)c(=O)c2)c(F)c1 [PF5081090, reference compound] |  |  |  |  |  |  |  |  |  |  | IC50 ([1]; read-out: IC50 T1, 1st Batch, replicate T1): 0.0957 µM; IC50 ([1]; read-out: IC50 T2, 1st Batch, replicate T2): 0.0919 µM; IC50 ([1]; read-out: IC50 T3, 2nd Batch, replicate T3): 0.0937 µM; IC50 ([1]; read-out: IC50 T4, 2nd Batch, replicate T4): 0.0938 µM
CCn1c(-c2nonc2N)nc2c(-c3cccc(Cl)c3)ncc(C(O)c3ccn(C)n3)c21 (stereo not drawn) [Compound 7] | > 1.49 | >1.49 | 3.24 | 3.24 | 4.75 | 10 |  |  |  |  | IC50 (HepG2 cells; [7]): > 100000 nM
CN1C(=O)[C@H](NC(=O)NCc2ccccc2)N=C(c2ccccc2)c2ccccc21 [Compound 5] |  |  | 19.1 | 19.1 |  |  |  |  |  |  | Selectivity (log) Caco pIC50 vs Cytotox ([1]; Supplementary table 8, vs HepG2): > 0.72 log; Selectivity (log) Caco pIC50 vs cytox ([1]; Table 1, Caco2 pIC50 vs HepG2 pIC50): >0.72 log; IC50 (HepG2 cells; [7]): > 100000 nM
CC(=O)c1cccc(NC(=O)Nc2ccc(S(=O)(=O)Nc3cc(C)on3)cc2)c1 [Compound 15] | > 0.76 | >0.61 | 17.4 | 17.4 | 2.04 | >149 |  |  |  |  | IC50 (HepG2 cells; [4]): > 100000 nM; IC50 (HepG2 cells; [8]): > 10 nM
Cc1nn(-c2ccccc2)c(C)c1NC(=O)CN1C(=O)NC(C)(c2ccco2)C1=O (stereo not drawn) [Compound 14] | > 0.61 | >0.61 | 24.6 | 24.5 | 2.93 | >106 |  |  |  |  | IC50 (HepG2 cells; [4]): > 100000 nM; IC50 (HepG2 cells; [8]): > 100 nM
COc1ccc(C2Nc3nc4ccccc4n3C(C)=C2C(=O)Nc2ccccc2)cc1 (stereo not drawn) [Compound 8] | 0.38 | 0.38 | 22.9 | 22.9 | 4.77 | 10 |  |  |  |  | HepG2 cytotoxicity (in words) (HepG2 cells): exhibit HepG2 cytotoxicity; IC50 (HepG2 cells; [7]): 55000 nM
CN(C)[C@@H]1C(O)=C(C(N)=O)C(=O)[C@@]2(O)C(O)=C3C(=O)c4c(O)cccc4[C@@](C)(O)[C@H]3C[C@@H]12 [Tetracycline, reference compound] |  |  |  |  |  |  | 1.61 | 1.56 | 1.19 | 1.18 | 
C[C@@H](O)[C@H]1C(=O)N2C(C(=O)O)=C([C@H]3CCCO3)S[C@H]12 [Faropenem, reference compound] |  |  |  |  |  |  | 1.3 | 1.23 | 1.43 | 1.44 | 
CC(=O)c1csc(-c2csc(C)n2)n1 [Compound 10] | 1.07 | 1.07 | 8.51 | 8.51 |  |  |  |  |  |  | IC50 (HepG2 cells; [8]): > 100000 nM
CO/N=C(\C(=O)N[C@@H]1C(=O)N2C(C(=O)O)=C(CSc3nc(=O)c(=O)[nH]n3C)CS[C@H]12)c1csc(N)n1 [Ceftriaxone, reference compound] |  |  |  |  |  |  | 0.0151 | 0.0151 | 0.0196 | 0.0196 | 
CC[C@H]1OC(=O)[C@H](C)[C@@H](O[C@H]2C[C@@](C)(OC)[C@@H](O)[C@H](C)O2)[C@H](C)[C@@H](O[C@@H]2O[C@H](C)C[C@H](N(C)C)[C@H]2O)[C@](C)(O)C[C@@H](C)CN(C)[C@H](C)[C@@H](O)[C@]1(C)O [Azithromycin, reference compound] |  |  |  |  |  |  | 0.569 | 0.51 | 0.624 | 0.624 | 
COc1ccc2c(CC(=O)NC(c3ccc(Cl)cc3)C3CC3)coc2c1 (stereo not drawn) [Compound 13] | > 0.61 | >0.61 | 24.6 | 24.5 | 6.43 | 53 |  |  |  |  | IC50 (HepG2 cells; [4]): > 100000 nM; IC50 (HepG2 cells; [8]): > 1000 nM
CNC(C)C1CCC(N)C(OC2C(N)CC(N)C(OC3OCC(C)(O)C(NC)C3O)C2O)O1 (stereo not drawn) [Gentamicin, reference compound] |  |  |  |  |  |  | 1.52 | 1.27 | 1.17 | 1.24 | 
C[C@@H](O)[C@H]1C(=O)N2C(C(=O)O)=C(S[C@@H]3CN[C@H](C(=O)N(C)C)C3)[C@H](C)[C@H]12 [Meropenem, reference compound] |  |  |  |  |  |  | 0.349 | 0.365 | 0.404 | 0.399 | 
